The subject of experiment [1] is Erysiphe [syn. Blumeria] graminis forma specialis. tritici. Briefly: Activity against mildew of wheat (protective spray, greenhouse). It is filed as in vivo. The settings on record: wheat seedlings Kanzler, 7 days. The protocol:
(§1) Evaluation is carried out by determining the infected leaf areas as a percentage. These percentages are converted into efficacies. The efficacy (W) is calculated as follows using Abbot's formula: [formula] • α corresponds to the fungal infection of the treated plants as a % and • β corresponds to the fungal infection of the untreated (control) plants as a %
(§2) An efficacy of 0 means that the infection level of the treated plants corresponds to that of the untreated control plants; an efficacy of 100 means that the treated plants were not infected.
(§3) The expected efficacies of the mixtures of the active compounds were determined using Colby's formula [R. S. Colby, Weeds 15, 20-22 (1967)] and compared with the observed efficacies. Colby's formula: E=x+y−x·y/100 • E expected efficacy, expressed as a % of the untreated control, when using the mixture of the active compounds A and B at the concentrations a and b • x efficacy, expressed as a % of the untreated control, when using active compound A at a concentration of a • y efficacy, expressed as a % of the untreated control, when using active compound B at a concentration of b
Leaves of wheat seedlings of the cultivar “Kanzler”, grown in pots, were sprayed to runoff point with an aqueous preparation of active compound which had been prepared from a stock solution comprising 10% of active compound, 85% of cyclohexanone and 5% of emulsifier, and 24 hours after the spray coating had dried on the leaves were dusted with spores of mildew of wheat (Erysiphe [syn. Blumeria] graminis forma specialis. tritici). The test plants were then placed in a greenhouse at 20-24° C. and 60-90% relative atmospheric humidity. After 7 days, the extent of the mildew development was determined visually in % infection of the entire leaf area.
The visually determined values for the percentage of diseased leaf areas were converted into efficacies in % of the untreated control. An efficacy of 0 means the same disease level in the untreated control, an efficacy of 100 means a disease level of 0%. The expected efficacies for the combinations of active compounds were determined using Colby's formula (Colby, S. R. (Calculating synergistic and antagonistic responses of herbicide Combinations”, Weeds, 15, pp. 20-22, 1967) and compared with the observed efficacies.

Another experiment has as its system Puccinia recondita. The experiment is described as follows: Curative activity against brown rust of wheat (greenhouse). Format: in vivo. The settings on record: wheat seedlings Kanzler, 7 days. The protocol: The active compounds, separately or together, are formulated as a 10% emulsion in a mixture of 63% by weight of cyclohexanone and 27% by weight of emulsifier, and diluted with water to the desired concentration.
as §1, §2, §3
Leaves of wheat seedlings of the cultivar “Kanzler”, grown in pots, were dusted with spores of brown rust (Puccinia recondita). The pots were then placed in a chamber with high atmospheric humidity (90-95%), at 20-22° C., for 24 hours. During this time the spores germinated and the germinal tubes penetrated into the leaf tissue. The next day, the infected plants were sprayed to runoff point with an aqueous formulation of active compound prepared from a stock solution consisting of 10% of active compound, 85% of cyclohexanone and 5% of emulsifier. After the spray coating had dried on, the test plants were cultivated in a greenhouse at 20-22° C. and 65-70% relative atmospheric humidity for 7 days. Thereafter, the extent of the rust fungus development on the leaves was determined.
The visually determined values for the percentage of diseased leaf areas were converted into efficacies in % of the untreated control. An efficacy of 0 means the same disease level as in the untreated control, an efficacy of 100 means a disease level of 0%. The expected efficacies for the combinations of active compounds were determined using Colby's formula (Colby. S. R. (Calculating synergistic and antagonistic responses of herbicide Combinations”, Weeds, 15, pp. 20-22, 1967) and compared with the observed efficacies.

In the case of `CC1(C)CCC(Cc2ccc(Cl)cc2)C1(O)Cn1cncn1` (centres unmarked) [metconazole], the “Efficacy in % of the untreated control” value was 0% in experiment [1] (0.015 ppm in the spray liquor); 0% in experiment [1] (0.06 ppm in the spray liquor); 0% in experiment [1] (0.25 ppm in the spray liquor); 0% in the experiment with Puccinia recondita (0.015 ppm in the spray liquor); 0% in the experiment on Puccinia recondita (0.06 ppm in the spray liquor); 56% in the experiment on Puccinia recondita (0.25 ppm in the spray liquor).
As for `CCCCC(C#N)(Cn1cncn1)c1ccc(Cl)cc1` (centres unmarked) [myclobutanil], the “Efficacy in % of the untreated control” value (in experiment [1] (0.015 ppm in the spray liquor); in experiment [1] (0.06 ppm in the spray liquor); in experiment [1] (0.25 ppm in the spray liquor); with Puccinia recondita (0.06 ppm in the spray liquor); in the experiment on Puccinia recondita (0.25 ppm in the spray liquor); in the experiment with Puccinia recondita (1 ppm in the spray liquor)) was 0% in each case.
As to `Fc1ccc(C2(Cn3cncn3)OC2c2ccccc2Cl)cc1` (centres unmarked) [epoxiconazole], the “Efficacy in % of the untreated control” value in experiment [1] (0.015 ppm in the spray liquor) came out at 0%; in experiment [1] (0.06 ppm in the spray liquor), 0%; in experiment [1] (0.125 ppm in the spray liquor), 0%; in experiment [1] (0.25 ppm in the spray liquor) it was 29%; in experiment [1] (1 ppm in the spray liquor), 59%; in the experiment on Puccinia recondita (0.015 ppm in the spray liquor), 0%. In addition, the entries for the “Efficacy in % of the untreated control” value in the experiment on Puccinia recondita (0.06 ppm in the spray liquor) and with Puccinia recondita (0.25 ppm in the spray liquor) were 11% and 56%, respectively.

Values taken from patent publication US20050148547A1, “Fungicidal mixtures based on benzamidoxime derivatives and azoles” (priority 2002, published 2005).
